# Experimental data as given in US20180057507A1, “INHIBITORS OF DUAL LEUCINE ZIPPER (DLK) KINASE FOR THE TREATMENT OF DISEASE” (Board of Regents, The University of Texas System, priority 2016, published 2018).
# Target: T1, human DLK (Homo sapiens, UniProt Q12852)
# T1 sequence (Q12852 1-859): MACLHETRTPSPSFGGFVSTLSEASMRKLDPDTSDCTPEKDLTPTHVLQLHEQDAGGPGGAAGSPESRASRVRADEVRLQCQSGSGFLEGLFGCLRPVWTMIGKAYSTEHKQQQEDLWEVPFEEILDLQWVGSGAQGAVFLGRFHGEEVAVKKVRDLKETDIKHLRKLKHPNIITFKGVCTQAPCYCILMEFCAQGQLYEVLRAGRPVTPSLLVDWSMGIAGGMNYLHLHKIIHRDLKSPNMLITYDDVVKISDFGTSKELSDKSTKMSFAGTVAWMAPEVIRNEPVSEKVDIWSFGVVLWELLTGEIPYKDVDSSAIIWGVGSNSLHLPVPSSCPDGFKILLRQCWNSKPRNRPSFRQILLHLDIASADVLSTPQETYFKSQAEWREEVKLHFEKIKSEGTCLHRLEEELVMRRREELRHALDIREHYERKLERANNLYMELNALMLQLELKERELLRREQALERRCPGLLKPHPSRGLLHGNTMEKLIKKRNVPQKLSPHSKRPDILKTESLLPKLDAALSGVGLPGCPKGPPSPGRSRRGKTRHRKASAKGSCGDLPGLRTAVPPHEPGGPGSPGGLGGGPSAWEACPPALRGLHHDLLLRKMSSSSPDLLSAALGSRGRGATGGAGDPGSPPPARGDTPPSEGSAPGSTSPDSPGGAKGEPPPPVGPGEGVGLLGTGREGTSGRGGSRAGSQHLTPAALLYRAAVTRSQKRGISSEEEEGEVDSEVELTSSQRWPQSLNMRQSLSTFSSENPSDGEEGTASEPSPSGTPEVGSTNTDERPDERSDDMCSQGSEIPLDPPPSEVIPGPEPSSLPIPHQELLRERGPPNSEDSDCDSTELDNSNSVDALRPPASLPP
# Test: DLK Kd Determinations (KINOMEscan KdELECT, DiscoveRx)
# Design: full length of human DLK (amino acids 1-859); host or cells: transiently transfected HEK293 cells; unpurified extract
# Conditions: fusion protein of full length human DLK (amino acids 1-859) and NFkB DNA binding domain; qPCR readout; duplicate
# Method: The DLK dissociation constants (Kd) have been determined in the KINOMEscan KdELECT Service at DiscoveRx.
# A fusion protein of full length of human DLK (amino acids 1-859) and the DNA binding domain of NFkB was expressed in transiently transfected HEK293 cells. From these HEK 293 cells, extracts were prepared in M-PER extraction buffer (Pierce) in the presence of Protease Inhibitor Cocktail Complete (Roche) and Phosphatase Inhibitor Cocktail Set II (Merck) per manufacturers' instructions. The DLK fusion protein was labeled with a chimeric double-stranded DNA tag containing the NFkB binding site (5′-GGGAATTCCC-3′) fused to an amplicon for qPCR readout, which was added directly to the expression extract (the final concentration of DNA-tag in the binding reaction is 0.1 nM).
# Streptavidin-coated magnetic beads (Dynal M280) were treated with a biotinylated small molecule ligand for 30 minutes at room temperature to generate affinity resins the binding assays. The liganded beads were blocked with excess biotin and washed with blocking buffer (SeaBlock (Pierce), 1% BSA, 0.05% Tween 20, 1 mM DTT) to remove unbound ligand and to reduce nonspecific binding.
# Extracts were used directly in binding assays without any enzyme purification steps at a ≧10,000-fold overall stock dilution (final DNA-tagged enzyme concentration <0.1 nM). Extracts were loaded with DNA-tag and diluted into the binding reaction in a two step process. First extracts were diluted 1:100 in 1× binding buffer (PBS/0.05% Tween 20/10 mM DTT/0.1% BSA/2 μg/ml sonicated salmon sperm DNA) containing 10 nM DNA-tag. This dilution was allowed to equilibrate at room temperature for 15 minutes and then subsequently diluted 1:100 in 1× binding buffer. Test compounds were prepared as 111× stocks in 100% DMSO. Kds were determined using an 11-point 3-fold compound dilution series with three DMSO control points. All compounds for Kd measurements are distributed by acoustic transfer (non-contact dispensing) in 100% DMSO. The compounds were then diluted directly into the assays such that the final concentration of DMSO was 0.9%. All reactions performed in polypropylene 384-well plates. Each was a final volume of 0.02 mL. Assays were incubated with shaking for 1 hour at room temperature. Then the beads were pelleted and washed with wash buffer (1×PBS, 0.05% Tween 20) to remove displaced kinase and test compound. The washed based were re-suspended in elution buffer (1×PBS, 0.05% Tween 20, 0.5 μM non-biotinylated affinity ligand) and incubated at room temperature with shaking for 30 minutes. The kinase concentration in the eluates was measured by qPCR. qPCR reactions were assembled by adding 2.5 μL of kinase eluate to 7.5 μL of qPCR master mix containing 0.15 μM amplicon primers and 0.15 μM amplicon probe. The qPCR protocol consisted of a 10 minute hot start at 95° C., followed by 35 cycles of 95° C. for 15 seconds, 60° C. for 1 minute.
# Test compounds were prepared as 111× stocks in 100% DMSO. Kds were determined using an 11-point 3-fold compound dilution series with three DMSO control points. All compounds for Kd measurements are distributed by acoustic transfer (non-contact dispensing) in 100% DMSO. The compounds were then diluted directly into the assays such that the final concentration of DMSO was 0.9%. The Kds were determined using a compound top concentration of 30,000 nM. Kd measurements were performed in duplicate.
# Binding constants (Kds) were calculated with a standard dose-response curve using the Hill equation: […]
# The Hill Slope was set to −1. Curves were fitted using a non-linear least square fit with the Levenberg-Marquardt algorithm (Levenberg, K., A method for the solution of certain non-linear problems in least squares, Q. Appl. Math. 2, 164-168 (1944)). See also Fabian, M. A. et al. A small molecule-kinase interaction map for clinical kinase inhibitors. Nat. Biotechnol. […]
row,SMILES,Kd
1,"CC(C)c1nc(-c2cnc(N)c(C(F)(F)F)c2)cn1[C@H]1C[C@H](F)C1 [Example 25, 5-(1-((1r,3r)-3-fluorocyclobutyl)-2-isopropyl-1H-imidazol-4-yl)-3-(trifluoromethyl)pyridin-2-amine]",200 nM
2,"CC(C)c1nc(-c2cnc(N)c(OC(F)F)c2)cn1[C@H]1[C@@H]2CNC[C@@H]21 [Example 50, 5-(1-((1R,5S,6s)-3-azabicyclo[3.1.0]hexan-6-yl)-2-isopropyl-1H-imidazol-4-yl)-3-(difluoromethoxy)pyridin-2-amine]",170 nM
3,"CC(C)c1nc(-c2cnc(N)c(C(F)(F)F)c2)cn1C1CC(F)(F)C1 [Example 26, 5-(1-(3,3-difluorocyclobutyl)-2-isopropyl-1H-imidazol-4-yl)-3-(trifluoromethyl)pyridin-2-amine]",400 nM
4,"CC(C)c1nc(-c2cnc(N)c(C(F)(F)F)c2)cn1CC1CCOCC1 [Example 34, 5-(2-isopropyl-1-((tetrahydro-2H-pyran-4-yl)methyl)-1H-imidazol-4-yl)-3-(trifluoromethyl)pyridin-2-amine]",870 nM
5,"CC(C)c1nc(-c2cnc(N)c(OC(F)(F)F)c2)cn1[C@H]1[C@@H]2CNC[C@@H]21 [Example 58, 5-(1-((1R,5S,6s)-3-azabicyclo[3.1.0]hexan-6-yl)-2-isopropyl-1H-imidazol-4-yl)-3-(trifluoromethoxy)pyridin-2-amine]",94 nM
6,"CC(C)c1nc(-c2cnc(N)c(C(F)(F)F)c2)cn1[C@H]1[C@@H]2CNC[C@@H]21 [Example 11, 5-(1-(3-azabicyclo[3.1.0]hexan-6-yl)-2-isopropyl-1H-imidazol-4-yl)-3-(trifluoromethyl)pyridin-2-amine]",120 nM
7,"Nc1ncc(-c2cn([C@H]3[C@@H]4CN(C5COC5)C[C@@H]43)c(C3CCCC3)n2)cc1C(F)(F)F [Example 62, 5-(2-cyclopentyl-1-((1R,5S,6s)-3-(oxetan-3-yl)-3-azabicyclo[3.1.0]hexan-6-yl)-1H-imidazol-4-yl)-3-(trifluoromethyl)pyridin-2-amine]",85 nM
8,"CC(C)c1nc(-c2cnc(N)c(C(F)(F)F)c2)cn1C1COC1 [Example 29, 5-(2-isopropyl-1-(oxetan-3-yl)-1H-imidazol-4-yl)-3-(trifluoromethyl)pyridin-2-amine]",1000 nM
9,"Nc1ncc(-c2cn([C@H]3[C@@H]4CN(C5COC5)C[C@@H]43)c(C3CCC3)n2)cc1C(F)(F)F [Example 51, 5-(2-cyclobutyl-1-((1R,5S,6s)-3-(oxetan-3-yl)-3-azabicyclo[3.1.0]hexan-6-yl)-1H-imidazol-4-yl)-3-(trifluoromethyl)pyridin-2-amine]",130 nM
10,"CC(=O)N1C[C@@H]2[C@H](C1)[C@H]2n1cc(-c2cnc(N)c(OC(F)F)c2)nc1C1CC1 [Example 118, 1-((1R,5S,6s)-6-(4-(6-amino-5-(difluoromethoxy)pyridin-3-yl)-2-cyclopropyl-1H-imidazol-1-yl)-3-azabicyclo[3.1.0]hexan-3-yl)ethan-1-one]",62 nM
11,"Nc1ncc(-c2cn([C@H]3[C@@H]4CN(CC(F)F)C[C@@H]43)c(CC3CC3)n2)cc1C(F)(F)F [Example 61, 5-(2-(cyclopropylmethyl)-1-((1R,5S,6s)-3-(2,2-difluoroethyl)-3-azabicyclo[3.1.0]hexan-6-yl)-1H-imidazol-4-yl)-3-(trifluoromethyl)pyridin-2-amine]",140 nM
12,"Nc1ncc(-c2cn([C@H]3[C@@H]4CN(CC(F)F)C[C@@H]43)c(CC3CC3)n2)cc1OC(F)(F)F [Example 98, 5-(2-(cyclopropylmethyl)-1-((1R,5S,6s)-3-(2,2-difluoroethyl)-3-azabicyclo[3.1.0]hexan-6-yl)-1H-imidazol-4-yl)-3-(trifluoromethoxy)pyridin-2-amine]",93 nM
13,"COCCN1C[C@@H]2[C@H](C1)[C@H]2n1cc(-c2cnc(N)c(OC(F)F)c2)nc1C(C)C [Example 113, 3-(difluoromethoxy)-5-(2-isopropyl-1-((1R,5S,6s)-3-(2-methoxyethyl)-3-azabicyclo[3.1.0]hexan-6-yl)-1H-imidazol-4-yl)pyridin-2-amine]",95 nM
14,"Nc1ncc(-c2cn([C@H]3[C@@H]4CN(CC(F)F)C[C@@H]43)c(C3CC3)n2)cc1OC(F)(F)F [Example 67, 5-(2-cyclopropyl-1-((1R,5S,6s)-3-(2,2-difluoroethyl)-3-azabicyclo[3.1.0]hexan-6-yl)-1H-imidazol-4-yl)-3-(trifluoromethoxy)pyridin-2-amine]",130 nM
15,"CC1OCCn2cc(-c3cnc(N)c(C(F)(F)F)c3)nc21 (stereo not shown) [Example 5, 5-(8-methyl-6,8-dihydro-5H-imidazo[2,1-c][1,4]oxazin-2-yl)-3-(trifluoromethyl)pyridin-2-amine]",3300 nM
16,"CC(C)c1nc(-c2cnc(N)c(C(F)(F)F)c2)cn1[C@H]1[C@@H]2CN(CC(F)F)C[C@@H]21 [Example 17, 5-(1-((1R,5S,6s)-3-(2,2-difluoroethyl)-3-azabicyclo[3.1.0]hexan-6-yl)-2-isopropyl-1H-imidazol-4-yl)-3-(trifluoromethyl)pyridin-2-amine]",170 nM
17,"Nc1ncc(-c2cn([C@H]3[C@@H]4CNC[C@@H]43)c(C3CC3)n2)cc1C(F)(F)F [Example 71, 5-(1-((1R,5S,6s)-3-azabicyclo[3.1.0]hexan-6-yl)-2-cyclopropyl-1H-imidazol-4-yl)-3-(trifluoromethyl)pyridin-2-amine]",87 nM
18,"Nc1ncc(-c2cn([C@H]3[C@@H]4CN(CC(F)F)C[C@@H]43)c(C3CC3)n2)cc1C(F)(F)F [Example 75, 5-(2-cyclopropyl-1-((1R,5S,6s)-3-(2,2-difluoroethyl)-3-azabicyclo[3.1.0]hexan-6-yl)-1H-imidazol-4-yl)-3-(trifluoromethyl)pyridin-2-amine]",56 nM
19,"Nc1ncc(-c2cn([C@H]3[C@@H]4CN(C5COC5)C[C@@H]43)c(CC3CC3)n2)cc1OC(F)F [Example 87, 5-(2-(cyclopropylmethyl)-1-((1R,5S,6s)-3-(oxetan-3-yl)-3-azabicyclo[3.1.0]hexan-6-yl)-1H-imidazol-4-yl)-3-(difluoromethoxy)pyridin-2-amine]",110 nM
